{
  "source": "patent US20100075957A1",
  "about": "“AMINODIHYDROTHIAZINE DERIVATIVES SUBSTITUTED WITH A CYCLIC GROUP” (SHIONOGI & CO., LTD., priority 2007, published 2010)",
  "data": [
    {"biological_target": "T1, Recombinant human BACE-1 (Homo sapiens, UniProt P56817)", "T1 construct": "purchased R&D Systems", "T1 sequence (P56817 46-501)": "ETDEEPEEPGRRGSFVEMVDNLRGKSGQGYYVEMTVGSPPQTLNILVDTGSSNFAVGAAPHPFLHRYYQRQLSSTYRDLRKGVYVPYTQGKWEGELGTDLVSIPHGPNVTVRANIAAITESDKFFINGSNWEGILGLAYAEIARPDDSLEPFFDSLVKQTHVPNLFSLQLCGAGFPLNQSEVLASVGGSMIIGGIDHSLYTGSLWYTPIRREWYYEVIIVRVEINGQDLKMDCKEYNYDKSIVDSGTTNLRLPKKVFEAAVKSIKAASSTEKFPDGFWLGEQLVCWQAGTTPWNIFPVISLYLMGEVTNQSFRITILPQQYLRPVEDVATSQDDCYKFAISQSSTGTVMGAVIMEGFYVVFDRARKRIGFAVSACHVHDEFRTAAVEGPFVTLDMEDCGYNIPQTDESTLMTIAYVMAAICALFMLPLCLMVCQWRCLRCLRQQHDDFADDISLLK", "test": "Assay of β-secretase-inhibiting activity;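 also: substrate is a peptide carrying biotin and europium cryptate, after the enzyme reaction, Streptavidin-XL665 is added and incubated 1 h at 30 °C before fluorescence reading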", "format": "biochemical", "conditions": "Recombinant human BACE-1 7.4 nM, substrate peptide 18 nM, pH 5.0, 30° C., 3 hours; Table 139; read-out: IC50", "units": {"IC50": "nM"}, "values": [
      {"molecule": "C[C@@]1(c2cc(NC(=O)CCc3ccc(O)c(O)c3)ccc2F)CCSC(N)=N1", "note": "[Compound 155]", "IC50": 5960},
      {"molecule": "C[C@@]1(c2cccc(NC(=O)c3cnc(OCC(F)F)cn3)c2)CCSC(N)=N1", "note": "[Compound 92]", "IC50": 80},
      {"molecule": "COCCOc1ccc(C(=O)Nc2ccc(F)c([C@]3(C)CCSC(N)=N3)c2)nc1", "note": "[Compound 93]", "IC50": 80},
      {"molecule": "CCCCOc1cnc(C(=O)Nc2cccc(C3(C)CCSC(N)=N3)c2)cn1", "note": "(stereo not shown) [Compound 71]", "IC50": 160},
      {"molecule": "CC#CCCOc1cnc(C(=O)Nc2cccc([C@]3(C)CCSC(N)=N3)c2)cn1", "note": "[Compound 106]", "IC50": 120},
      {"molecule": "C[C@@]1(c2cc(NC(=O)COc3ccccc3O)ccc2F)CCSC(N)=N1", "note": "[Compound 149]", "IC50": 9250}
    ]},
    {"biological_target": "T1, Recombinant human BACE-1", "test": "Assay of β-secretase-inhibiting activity", "format": "biochemical", "conditions": "Recombinant human BACE-1 7.4 nM, substrate peptide 18 nM, pH 5.0, 30° C., 3 hours; Table 140; read-out: IC50", "units": {"IC50": "nM"}, "values": [
      {"molecule": "COc1cc(C(=O)Nc2cncc([C@]3(C)CCSC(N)=N3)c2)n(C)n1", "note": "[Compound 473]", "IC50": 170},
      {"molecule": "CC(=O)c1ccc(C(=O)Nc2ccc(F)c([C@]3(C)CCSC(N)=N3)c2)s1", "note": "[Compound 530]", "IC50": 90},
      {"molecule": "C[C@@]1(c2cccc(NC(=O)c3ccc(Cl)cn3)n2)CCSC(N)=N1", "note": "[Compound 599]", "IC50": 30}
    ]},
    {"biological_target": "T1, Recombinant human BACE-1", "test": "Assay of β-secretase-inhibiting activity", "format": "biochemical", "conditions": "Recombinant human BACE-1 7.4 nM, substrate peptide 18 nM, pH 5.0, 30° C., 3 hours; Table 141; read-out: IC50", "units": {"IC50": "nM"}, "values": [
      {"molecule": "C[C@@]1(c2cc(NC(=O)c3cnc(NCC(F)(F)F)cn3)ccc2F)CCSC(N)=N1", "note": "[Compound 702]", "IC50": 160},
      {"molecule": "C[C@]1(c2cc(NC(=O)c3ncccc3F)ccc2F)N=C(N)SCC1(F)F", "note": "[Compound 660]", "IC50": 110},
      {"molecule": "CC1(C)C[C@@](C)(c2cc(NC(=O)c3ncccc3F)ccn2)N=C(N)S1", "note": "[Compound 655]", "IC50": 10},
      {"molecule": "COc1cnc(C(=O)Nc2ccc(F)c([C@@]3(C)N=C(N)SCC3=O)c2)cn1", "note": "[Compound 689]", "IC50": 40},
      {"molecule": "COc1nc(C(=O)Nc2ccc(F)c([C@]3(C)CCSC(N)=N3)c2)co1", "note": "[Compound 667]", "IC50": 20},
      {"molecule": "Cc1cnc(C(=O)Nc2ccc(F)c([C@@]3(C)N=C(N)SCC34CC4)c2)cn1", "note": "[Compound 674]", "IC50": 10},
      {"molecule": "CCCCc1ccc(C(=O)Nc2ccc(F)c([C@@]3(C)N=C(N)SCC3(F)F)c2)nc1", "note": "[Compound 665]", "IC50": 870}
    ]},
    {"biological_target": "T1, Recombinant human BACE-1", "test": "Assay of β-secretase-inhibiting activity", "format": "biochemical", "conditions": "Recombinant human BACE-1 7.4 nM, substrate peptide 18 nM, pH 5.0, 30° C., 3 hours; time-resolved fluorescence ratio 665/620; read-out: IC50 values (50% inhibitory concentration against the enzymatic activity)", "units": {"IC50": "nM"}, "values": [
      {"molecule": "Cc1ccc(C(=O)Nc2ccc(F)c([C@]3(C)CCSC(N)=N3)c2)s1", "note": "[Compound 532]", "IC50": "≤ 1000"},
      {"molecule": "CC(C)=NOc1cnc(C(=O)Nc2cccc([C@]3(C)CCSC(N)=N3)c2)cn1", "note": "[Compound 113]", "IC50": "≤ 1000"},
      {"molecule": "C[C@@]1(c2cc(NC(=O)c3cnc(NCC(F)(F)F)cn3)ccc2F)CCSC(N)=N1", "note": "[Compound 702]", "IC50": "≤ 1000"},
      {"molecule": "COCCOc1cnc(C(=O)Nc2cc([C@]3(C)CCSC(N)=N3)c3oc(C)cc3c2)cn1", "note": "[Compound 465]", "IC50": "≤ 1000"},
      {"molecule": "C[C@@]1(c2cc(NC(=O)c3cn4cc(C#N)nc4cn3)ccn2)CCSC(N)=N1", "note": "[Compound 699]", "IC50": "≤ 1000"},
      {"molecule": "CCN1N=C(C(=O)Nc2ccc(F)c([C@]3(C)CCSC(N)=N3)c2)CCC1=O", "note": "[Compound 477]", "IC50": "≤ 1000"},
      {"molecule": "Cc1cnc(C(=O)Nc2ccc(Br)c(C3(C)CCSC(N)=N3)c2)cn1", "note": "(stereo not shown) [Compound 492]", "IC50": "≤ 1000"},
      {"molecule": "C[C@@]1(c2cc(NC(=O)c3ncc(OCC(F)(F)F)nc3N)ccc2F)CCSC(N)=N1", "note": "[Compound 165]", "IC50": "≤ 1000"},
      {"molecule": "Cc1nc(C(=O)Nc2cnc(Cl)c([C@]3(C)CCSC(N)=N3)c2)c(C)o1", "note": "[Compound 586]", "IC50": "≤ 1000"},
      {"molecule": "COCCOc1cnc(C(=O)Nc2ccc(F)c([C@]3(C)CC(C)(C)SC(N)=N3)c2)cn1", "note": "[Compound 601]", "IC50": "≤ 1000"},
      {"molecule": "Cc1csc(C(=O)Nc2cncc([C@]3(C)CCSC(N)=N3)c2)c1", "note": "[Compound 486]", "IC50": "≤ 1000"},
      {"molecule": "Cc1cc(C(=O)Nc2cncc([C@]3(C)CCSC(N)=N3)c2)on1", "note": "[Compound 474]", "IC50": "≤ 1000"},
      {"molecule": "CC#CCOc1cnc(C(=O)Nc2cc([C@]3(C)CCSC(N)=N3)ccn2)cn1", "note": "[Compound 596]", "IC50": "≤ 1000"},
      {"molecule": "COc1cnc(C(=O)Nc2ccc(F)c([C@]3(C)CCSC(N)=N3)c2)c(C)c1", "note": "[Compound 602]", "IC50": "≤ 1000"},
      {"molecule": "COc1ccc(NC(=O)c2cnc(C)cn2)cc1[C@]1(C)CCSC(N)=N1", "note": "[Compound 32]", "IC50": "≤ 1000"},
      {"molecule": "Cc1ccsc1C(=O)Nc1cncc([C@]2(C)CCSC(N)=N2)c1", "note": "[Compound 487]", "IC50": "≤ 1000"},
      {"molecule": "COCCOc1cnc(C(=O)Nc2cccc([C@]3(C)CCSC(N)=N3)n2)cn1", "note": "[Compound 592]", "IC50": "≤ 1000"},
      {"molecule": "COc1nccnc1C(=O)Nc1ccc(F)c([C@]2(C)CCSC(N)=N2)c1", "note": "[Compound 85]", "IC50": "≤ 1000"},
      {"molecule": "CC1(C)C[C@@](C)(c2cc(NC(=O)c3ncc(C(F)(F)F)cc3Cl)ccn2)N=C(N)S1", "note": "[Compound 656]", "IC50": "≤ 1000"},
      {"molecule": "C#CCOc1cnc(C(=O)Nc2cccc([C@]3(C)CC(C)(C)SC(N)=N3)c2)cn1", "note": "[Compound 693]", "IC50": "≤ 1000"},
      {"molecule": "COCCOc1cnc(C(=O)Nc2ccc(F)c([C@]3(C)CCSC(N)=N3)c2)c(N)n1", "note": "[Compound 46]", "IC50": "≤ 1000"},
      {"molecule": "CNCC#CCOc1ccc(C(=O)Nc2ccc(F)c([C@]3(C)CCSC(N)=N3)c2)nc1", "note": "[Compound 569]", "IC50": "≤ 1000"},
      {"molecule": "COc1cnc(C(=O)Nc2cncc([C@]3(C)CCSC(N)=N3)c2)cn1", "note": "[Compound 547]", "IC50": "≤ 1000"},
      {"molecule": "COc1cnc(C(=O)Nc2ccc(F)c([C@]3(C)CCSC(N)=N3)c2)c(N)n1", "note": "[Compound 603]", "IC50": "≤ 1000"},
      {"molecule": "C[C@@]1(c2cc(NC(=O)c3cc4ccccc4[nH]3)ccc2F)CCSC(N)=N1", "note": "[Compound 536]", "IC50": "≤ 1000"},
      {"molecule": "C#CCOc1cnc(C(=O)Nc2ccc(F)c([C@]3(C)CCSC(N)=N3)c2)cn1", "note": "[Compound 133]", "IC50": "≤ 1000"},
      {"molecule": "Cc1cc(C(=O)Nc2cccc([C@]3(C)CCSC(N)=N3)c2)[nH]n1", "note": "[Compound 5]", "IC50": "≤ 1000"},
      {"molecule": "COc1cscc1C(=O)Nc1ccc(F)c([C@]2(C)CCSC(N)=N2)c1", "note": "[Compound 524]", "IC50": "≤ 1000"},
      {"molecule": "Cc1nc(C(=O)Nc2ccc(F)c([C@]3(C)CCSC(N)=N3)c2)co1", "note": "[Compound 462]", "IC50": "≤ 1000"},
      {"molecule": "COCCOc1cnc(C(=O)Nc2ccnc([C@]3(C)CCSC(N)=N3)c2)cn1", "note": "[Compound 549]", "IC50": "≤ 1000"},
      {"molecule": "COCCOCCOc1cnc(C(=O)Nc2cccc([C@]3(C)CCSC(N)=N3)c2)cn1", "note": "[Compound 90]", "IC50": "≤ 1000"},
      {"molecule": "Cc1noc(C)c1C(=O)Nc1ccc(F)c([C@]2(C)CCSC(N)=N2)c1", "note": "[Compound 500]", "IC50": "≤ 1000"},
      {"molecule": "C[C@@]1(c2cccc(NC(=O)c3cnc(OCCF)cn3)c2)CCSC(N)=N1", "note": "[Compound 565]", "IC50": "≤ 1000"},
      {"molecule": "COc1cnc(C(=O)Nc2ccc(F)c([C@@]3(C)N=C(N)SC[C@@H]3OCc3ccccc3)c2)cn1", "note": "[Compound 683]", "IC50": "≤ 1000"},
      {"molecule": "C[C@@]1(c2cccc(NC(=O)c3cnc(OCC(F)(F)F)cn3)c2)CCSC(N)=N1", "note": "[Compound 82]", "IC50": "≤ 1000"},
      {"molecule": "C[C@@]1(c2cncc(NC(=O)c3cc(Br)cs3)c2)CCSC(N)=N1", "note": "[Compound 516]", "IC50": "≤ 1000"},
      {"molecule": "Cc1nc(-c2ccc(C(=O)Nc3ccc(F)c([C@]4(C)CCSC(N)=N4)c3)cc2)no1", "note": "[Compound 531]", "IC50": "≤ 1000"},
      {"molecule": "Cc1cc(C(=O)Nc2ccc(F)c([C@]3(C)CCSC(N)=N3)c2)n(C)n1", "note": "[Compound 463]", "IC50": "≤ 1000"},
      {"molecule": "C[C@@]1(c2cc(NC(=O)c3cnc(-c4nccs4)cn3)ccc2F)CCSC(N)=N1", "note": "[Compound 519]", "IC50": "≤ 1000"},
      {"molecule": "C[C@@]1(c2cccc(NC(=O)c3nccnc3Cl)c2)CCSC(N)=N1", "note": "[Compound 59]", "IC50": "≤ 1000"},
      {"molecule": "Cn1ccnc1C(=O)Nc1ccc(F)c([C@]2(C)CCSC(N)=N2)c1", "note": "[Compound 553]", "IC50": "≤ 1000"},
      {"molecule": "CSc1cnc(C(=O)Nc2ccc(F)c([C@]3(C)CCSC(N)=N3)c2)cn1", "note": "[Compound 77]", "IC50": "≤ 1000"},
      {"molecule": "CC#CCOc1cnc(C(=O)Nc2cncc([C@]3(C)CCSC(N)=N3)c2)cn1", "note": "[Compound 595]", "IC50": "≤ 1000"},
      {"molecule": "COc1cnc(C(=O)Nc2cnc(Cl)c([C@]3(C)CCSC(N)=N3)c2)cn1", "note": "[Compound 582]", "IC50": "≤ 1000"},
      {"molecule": "C[C@@]1(c2cccc(NC(=O)C#Cc3ccccc3)c2)CCSC(N)=N1", "note": "[Compound 64]", "IC50": "≤ 1000"}
    ]}
  ]
}
